Assay results: patent US7629318B2, “Immunosuppressant compounds, methods and uses related thereto” (priority 2002, dated 2009)
Square brackets hold non-standard residues; d marks the D form. Peptide text beside a SMILES is read from it. * marks the point of attachment. Gly(1-amidinopiperidin-4-yl) = N=C(N)N1CCC([C@H](N)C(=O)O)CC1; Tetrahydroisoquinolin(2-yl) = c1ccc2c(c1)CCN(*)C2; N(Me)CH2CH2Ph = CN(CCc1ccccc1)*; Tic = O=C(O)[C@@H]1Cc2ccccc2CN1; Cha = N[C@@H](CC1CCCCC1)C(=O)O; X4 = OCCOCCN(CCc1ccccc1)*; Nle = CCCC[C@H](N)C(=O)O; X2 = OCCOCCN(Cc1ccccc1)*; X5 = OCCN(Cc1ccccc1)*

What was measured:
[1] = target: DR4Dw4 (DRA1*0101 DRB1*0401) (Homo sapiens, UniProt P01903+P01911, A100K/A169T/F76Y/I96L/K127E/L162R/M171V/N62H/P40V/Q125Y/R42H/S133A/S149N/S66Y/V115G/V209L/W38E); test: Competitive binding to MHC-II protein DR4Dw4
Procedure: (§1) Interaction mixtures lacking the peptidomimetic compound and both peptide mimetic compound and MHC-II were used as positive and negative controls, respectively. All interaction mixtures were set up in duplicates and were incubated for 16 hours at room temperature.
(§2) After washing with PBS, 60 μl of the MHC-II-compound interaction mixtures were transferred from the interaction plate to the appropriate wells of the capture plate and incubated for 2 h at 4° C. The wells were washed six times with 200 μl/well of cooled (4 to 8° C.) 1×DELFIA wash (Wallac-ADL-GmbH, Freiburg), incubated with 100 μl of cooled Europium-streptavidin conjugate (Wallac-ADL-GmbH, Freiburg; diluted 1/1000 with DELFIA assay buffer) for 30 minutes at 4° C., again washed six times with cooled 1×DELFIA wash and, finally, incubated with 200 μl cooled DELFIA enhancement solution (Wallac-ADL-GmbH, Freiburg) for one hour at room temperature before reading the time-resolved europium fluorescence at λex Eu^3+: 340 nm and λem Eu^3+: 613 (615) nm (Wallac Victor^2 1420 Multilabel Counter, Wallac-ADL-GmbH, Freiburg).

[2] = test system: T-cell proliferation, lymph node cells of chimeric 0401-IE transgenic mice; conditions: DR4-LN; for Immunsupressive assays DR4-LN (Max) % Inhibition: maximal inhibition; for IC50: read-out: Immunsupressive assays DR4-LN (IC50)
Procedure: The compounds were tested as follows to inhibit the proliferative T cell response of antigen-primed lymph node cells from mice carrying a chimeric mouse-human class II transgene with an RA-associated peptide binding site, and lack murine class II molecules (Muller et al., 1990; Woods et al., 1994; Current Protocols in Immunology, Vol. 2, 7.21; Ito et al., 1996). Here, the immunization takes place in vivo, but the inhibition and readout are ex vivo. […] These mice lack murine MHC class II, and thus, all Th responses are channelled through a single human RA-associated MHC class II molecule (Ito et al. 1996). These transgenic mice represent a model for testing human class II antagonists.
1.5×10^5 cells are incubated in 0.2 ml wells of 96-well tissue culture plates in the presence of ovalbumin (30 μg per well—half-maximal stimulatory concentration) and a dilution series of the compound under test (from around 0.1 to 200 uM) in serum free HL-1 medium containing 2 mM L-glutamine and 0.1 g/l Kanamycin for three days. Antigen specific proliferation is measured by 3H-methyl-thymidine (1 μCi/well) incorporation during the last 16 h of culture (Falcioni et al., 1999). Cells are harvested, and 3H incorporation measured using a scintillation counter (TopCount, Wallac Finland).

[3] = target: DR1 (DRA1*0101 DRB1*0101) (Homo sapiens, UniProt P01903+P01911, A100R/D57E/F55L/F60I/F76Y/I96L/L162R/M171V/P40L/Q125E/R42F/V115G/Y59C); test: Competitive binding to MHC-II protein DR1; conditions: Protein binding IC50 (nM) 0101, 0101
Procedure: as §1, §2

[4] = target: DR4Dw14 (DRA1*0101 DRB1*0404) (Homo sapiens, UniProt P01903+P01911, A100R/A169T/F76Y/I96L/K127E/L162R/M171V/N62H/P40V/Q125Y/R42H/S133A/S149N/S66Y/V209L/W38E); test: Competitive binding to MHC-II protein DR4Dw14; conditions: 0404; read-out: Protein binding IC50 (nM) 0404
Procedure: as §1, §2

[5] = test system: T-cell proliferation, DR14-LN; conditions: for Immunsupressive assays DR14-LN (Max) % Inhibition: maximal inhibition; for IC50: read-out: Immunsupressive assays DR14-LN (IC50)
[6] = Stability of compounds in mouse blood plasma; assay type: in vitro ADME
Procedure: (§3) The stability of the peptidomimetic compounds was determined in rat (Charles River Laboratories, Sulzfeld), mouse (Charles River Laboratories, Sulzfeld) and human (Bayerisches Rotes Kreuz, München) blood plasma (E. R. Garrett and M. R. Gardner, J Pharmaceutical Sciences 71 (1982) 14-25).
(§4) Compound stock solutions were diluted into blood plasma to give a final compound concentration of 5 μM and the mixtures were incubated at 37° C. At 0, 6 and 24 hours 1 ml samples were drawn and the plasma proteins were precipitated by the addition of 3 ml acetonitrile p.a. and whirlmixing. The precipitate was pelleted by centrifugation at 2000 g for 5 minutes. The supernatant was evaporated off to dryness and the residue was reconstituted in 400 μl 50% acetonitrile, 0.1% TFA in water.
(§5) PBS controls were prepared for unstable compounds accordingly.

[7] = target: Cathepsin D (EC 3.4.23.5 from bovine spleen) (Bos taurus, UniProt P80209)
Procedure: The stability of the peptidomimetic compounds towards lysosomal degradation was examined by incubation with Cathepsin B1 (EC 3.4.22.1 from bovine spleen; Sigma-Aldrich, Taufkirchen; dissolved at 10000 U/l in ddH2O) and D (EC 3.4.23.5 from bovine spleen; Sigma-Aldrich, Taufkirchen; dissolved at 10000 U/l in ddH2O) for four hours at 37° C. using a compound concentration of 50 μM and an enzyme/substrate ratio of 0.4 U/μmol. The samples contained 25 ppm 4-isopropyl benzyl alcohol (IPBA; Sigma-Aldrich, Taufkirchen) as internal standard.
Assay buffer was prepared by adding 35 μl of a 1% IPBA in DMSO solution and 28 μl of a 10000 U/l Cathepsin B1 or Cathepsin D stock solution to 14 ml of 100 mM sodium acetate, 1 mM EDTA, 1 mM DTT, pH 5.00 or 100 mM sodium acetate, pH 4.50, respectively. 8.8 μl of a 5 mM (or 4.4 μl of a 10 mM) compound stock solution (in 10% DMSO/water) were placed into a 1.5 ml Eppendorf tube. The reaction was started by adding 875 μl fully supplemented assay buffer to each tube, whirlmixing and incubation at 37° C. At 0 and 4 hours 400 μl samples were taken and the enzyme was inactivated by addition of 40 μl […] TFA aq. The samples were kept frozen at −20° C. until analysis by RP-HPLC (200 μl injection volume; Nucleosil 100-5 C18, 12.5×4.6 cm; Gradient: 20-50% acetonitrile in 30 min).
Compounds co-eluting with the internal standard during RP-HPLC analysis were tested without the standard as Example 16.

[8] = Stability of compounds in rat blood plasma; assay type: in vitro ADME
Procedure: as §3, §4, §5

[9] = Stability of compounds in human blood plasma; assay type: in vitro ADME
Procedure: as §3, §4, §5

[10] = target: Cathepsin B1 (EC 3.4.22.1 from bovine spleen) (Bos taurus, UniProt P07688); conditions: Cathepsin B, 4 h

Structure (SMILES)	IC50 [1] [µM]	Immunsupressive assays DR4-LN (Max) % Inhibition [2] [%]	IC50 [2] [µM]	IC50 [3] [nM]	IC50 [4] [nM]	Immunsupressive assays DR14-LN (Max) % Inhibition [5] [%]	IC50 [5] [µM]	Stability (Arbitrary units) Mouse 6 h [6] [Arbitrary units]	Stability (Arbitrary units) Mouse 24 h [6] [Arbitrary units]	Stability (Arbitrary units) Cath D 4 h [7] [Arbitrary units]	Stability (Arbitrary units) Rat 6 h [8] [Arbitrary units]	Stability (Arbitrary units) Rat 24 h [8] [Arbitrary units]	Stability (Arbitrary units) Human 6 h [9] [Arbitrary units]	Stability (Arbitrary units) Human 24 h [9] [Arbitrary units]	Stability (Arbitrary units) Cath B 4 h [10] [Arbitrary units]
CCCC[C@H](NC(=O)[C@@H]1Cc2ccccc2CN1C(=O)[C@@H](NC(=O)[C@H](CC1CCCCC1)NC(C)=O)C1CCN(C(=N)N)CC1)C(=O)N1CCc2ccccc2C1 [Compound P77, Ac-Cha-Gpg-Tic-Nle-tetrahydroisoquinoline] (Ac-[Cha][Gly(1-amidinopiperidin-4-yl)][Tic][Nle]-{Tetrahydroisoquinolin(2-yl)})	8.7	100	10	1900	3600	99	14	141	181	95	129	57	111	114	107
CCCC[C@H](NC(=O)[C@@H]1Cc2ccccc2CN1C(=O)[C@@H](NC(=O)[C@H](CC1CCCCC1)NC(C)=O)C1CCN(C(=N)N)CC1)C(=O)N(CCO)Cc1ccccc1 [Compound P78, Ac-Cha-Gpg-Tic-Nle-N(Bn)CH2CH2OH] (Ac-[Cha][Gly(1-amidinopiperidin-4-yl)][Tic][Nle]-X5)	2.6	97	36	430	1200	100	36	90	113	108	184	107	73	130	100
CCCC[C@H](NC(=O)[C@@H]1Cc2ccccc2CN1C(=O)[C@H](CCCNC(=N)N)NC(=O)[C@H](CC1CCCCC1)NC(C)=O)C(=O)N(C)CCc1ccccc1 [Compound P83, Ac-Cha-Arg-Tic-Nle-N(Me)CH2CH2Ph] (Ac-[Cha]R[Tic][Nle]-{N(Me)CH2CH2Ph})	24			1300	11000	100	13	93	58	98	69	85			100
CCCC[C@H](NC(=O)[C@@H]1Cc2ccccc2CN1C(=O)[C@H](CCCNC(=N)N)NC(=O)[C@H](CC1CCCCC1)NC(C)=O)C(=O)N(CCOCCO)CCc1ccccc1 [Compound P88] (Ac-[Cha]R[Tic][Nle]-X4)	10		105	2000	5700		37	125	128	101	77	55	133	123	94
CCCC[C@H](NC(=O)[C@@H]1Cc2ccccc2CN1C(=O)[C@H](CCCNC(=N)N)NC(=O)[C@H](CC1CCCCC1)NC(C)=O)C(=O)N(CCOCCO)Cc1ccccc1 [Compound P98, Ac-Cha-Arg-Tic-Nle-N(Bn)CH2CH2OCH2CH2OH] (Ac-[Cha]R[Tic][Nle]-X2)	4.7	67	69	640	1300		> 200	87	54	104	71	60	116	121	104
